Test results reported in paper PMC7796187, “New Bioactive Peptides Identified from a Tilapia Byproduct Hydrolysate Exerting Effects on DPP-IV Activity and Intestinal Hormones Regulation after Canine Gastrointestinal Simulated Digestion” (Molecules, 2020).
Where a SMILES comes first, the peptide text is derived from it. Where no end group is shown, it is not given here.

Test system: STC-1 cells
Test: Active GLP-1 secretion in STC-1 cells, radioimmunoassay of supernatant
Type: cell-based
Settings: 1 mM, 2 h, versus buffer control
Description: The Caco-2 cell line was purchased from Sigma-Aldrich (Villefranche-sur-Saône, France) and the STC-1 cell line was a grateful gift received from Corinne Grangette (Univ. Lille, CNRS, Inserm, CHU Lille, Institut Pasteur de Lille, U1019-UMR 8204-CIIL, France). Cells were grown in flask of 75 cm^2 at 37 °C, 5% CO2 atmosphere in DMEM supplemented with 4.5 g L^−1 of glucose, 10% of fetal bovine serum, 100 U mL^−1 of penicillin, 100 µg mL^−1 of streptomycin and 2 mM of L-glutamine. Caco-2 and STC-1 cells were weekly and twice a week subcultured, respectively. All cells used in this study were between the 40 and the 50 passages for Caco-2 cells and between the 10 and 30 passages for STC-1 cells.
When 80–90% confluence was reached, STC-1 cells were trypsinized and seeded at a density of 40,000 cells/well in 24-wells culture plates (ThermoFisher Scientific, Saint Aubin, France) allowing to reach 60–80% confluence. Cell culture medium was removed from each well and cells were washed with phosphate saline buffer (PBS, 10 mM, pH 7.4). 250 µL of digests (2 to 10 mg mL^−1) or synthetic peptides (1 mM) diluted in Hepes buffer (4.5 mM KCl, 1.2 mM CaCl2, 140 mM NaCl and 20 mM Hepes, pH 7.4) were then added. Hepes buffer was used as a negative control. […]

| Compound | active GLP-1 release stimulation by synthetic peptide |
| --- | --- |
| LKPT | able to significantly stimulate active-GLP-1 release |
| ELLK | did not lead to GLP-1 secretion |

Test system: EECs
Test: not given
Settings: cited from earlier work

| Compound | GLP-1 secretion stimulation |
| --- | --- |
| GGGG | able to stimulate GLP-1 secretion |
| AAAA | able to stimulate GLP-1 secretion |
| GPVRGPFPIIV [literature GLP-1 stimulating peptide] | able to stimulate GLP-1 secretion |
| LGG | able to stimulate GLP-1 secretion |
| GWGG | able to stimulate GLP-1 secretion |

Same assay, conditions: egg white protein digest peptides; cited from earlier work

| Compound | GLP-1 secretion stimulation |
| --- | --- |
| PFL | able to stimulate GLP-1 secretion |
| RVASMASEKM [peptide from egg white protein digest] | GLP-1 secretagogue |

Same assay, conditions: hemorphins from bovine hemoglobin digestion; cited from earlier work

| Compound | GLP-1 secretion stimulation |
| --- | --- |
| LLVVYPWT [hemorphin released during bovine hemoglobin digestion] | CCK and GLP-1 secretion stimulating peptides |
| VVYPWT | CCK and GLP-1 secretion stimulating peptides |
| VVYPWTQRF [hemorphin released during bovine hemoglobin digestion] | CCK and GLP-1 secretion stimulating peptides |
| LVVYPWT [hemorphin released during bovine hemoglobin digestion] | CCK and GLP-1 secretion stimulating peptides |

Same assay, conditions: sequences from bovine hemoglobin intestinal digest; cited from earlier work

| Compound | GLP-1 secretion stimulation |
| --- | --- |
| YGAE | able to stimulate the secretion of GLP-1 |
| ANVST | able to stimulate the secretion of GLP-1 |
| TKAVEH | able to stimulate the secretion of GLP-1 |
| KAAVT | able to stimulate the secretion of GLP-1 |

Test system: murine GLUTag cells
Test: not given
Set-up: method as in earlier work
Settings: α-actinin-2 sequences; cited from earlier work

| Compound | GLP-1 secretion stimulation |
| --- | --- |
| KPYIL | able to stimulate the GLP-1 secretion in murine GLUTag cells |
| ASDKPYIL [α-actinin-2 derived peptide] | also active |

Test system: EECs
Test: not given
Set-up: method as in PMID 28460928, doi:10.1016/j.jff.2017.06.047
Settings: hemorphins from bovine hemoglobin digestion; cited from earlier work

| Compound | CCK secretion stimulation |
| --- | --- |
| LLVVYPWT [hemorphin released during bovine hemoglobin digestion] | CCK and GLP-1 secretion stimulating peptides |
| VVYPWT | CCK and GLP-1 secretion stimulating peptides |
| VVYPWTQRF [hemorphin released during bovine hemoglobin digestion] | CCK and GLP-1 secretion stimulating peptides |
| LVVYPWT [hemorphin released during bovine hemoglobin digestion] | CCK and GLP-1 secretion stimulating peptides |

Test system: STC-1 cells
Test: not given
Set-up: method as in PMID 32516710
Settings: peptides from egg white SGID intestinal digest; cited from earlier work

| Compound | CCK secretion stimulation |
| --- | --- |
| VLLPD | able to stimulate CCK secretion in STC-1 cells |
| VLLPDEVSGL [peptide from egg white SGID intestinal digest] | able to stimulate CCK secretion in STC-1 cells |

Target: T1, Caco-2 DPP-IV activity (Homo sapiens, UniProt P27487)
T1 construct: In situ method using confluent Caco-2 cells described by Caron et al. was slightly modified and used to study DPP-IV activity; host or cells: Caco-2 cells, live and confluent, 7 days after seeding
Test: In situ DPP-IV activity inhibition using live confluent Caco-2 cells (Gly-Pro-AMC substrate)
Type: cell-based
Settings: synthetic peptides identified in basolateral side, read-out: In Situ IC50 (DPP-IV inhibitory activity)
Description: Cells were grown in flask of 75 cm^2 at 37 °C, 5% CO2 atmosphere in DMEM supplemented with 4.5 g L^−1 of glucose, 10% of fetal bovine serum, 100 U mL^−1 of penicillin, 100 µg mL^−1 of streptomycin and 2 mM of L-glutamine. Caco-2 and STC-1 cells were weekly and twice a week subcultured, respectively. All cells used in this study were between the 40 and the 50 passages for Caco-2 cells and between the 10 and 30 passages for STC-1 cells.
In situ method using confluent Caco-2 cells described by Caron et al. was slightly modified and used to study DPP-IV activity. A 1 mM (Gly-Pro-AMC) substrate solution, the digests and the synthetic peptides dilutions were prepared in phosphate saline buffer pH 7.4 (PBS). Briefly, after 7 days of growth, Caco-2 cells were trypsinized and seeded at a density of 8000 cells/well in 96-well optical black plates (Nunc, ThermoFisher Scientific, Rochester, NY, USA). After 7 days, culture media were removed from wells and the cells were washed with 100 µL of PBS buffer (pH 7.4). […] After 5 min of incubation at 37 °C, 50 µL of (Gly-Pro-AMC) substrate solution were added to each well. Fluorescence was recorded every 2 min for 1 h at 37 °C using a Xenius XC spectrofluorometer (Safas Monaco, Monaco). Excitation wavelength was set to […] while the emission wavelength was of 480 nm. The percentage of the DPP-IV activity inhibition was defined as the percentage of DPP-IV activity inhibited by a given concentration of digest or diprotin A (commercial DPP-IV peptide inhibitor) as positive control compared with control buffer response. […] IC50 was expressed in mg mL^−1 or in mM.

T1 sequence (P27487 whole entry): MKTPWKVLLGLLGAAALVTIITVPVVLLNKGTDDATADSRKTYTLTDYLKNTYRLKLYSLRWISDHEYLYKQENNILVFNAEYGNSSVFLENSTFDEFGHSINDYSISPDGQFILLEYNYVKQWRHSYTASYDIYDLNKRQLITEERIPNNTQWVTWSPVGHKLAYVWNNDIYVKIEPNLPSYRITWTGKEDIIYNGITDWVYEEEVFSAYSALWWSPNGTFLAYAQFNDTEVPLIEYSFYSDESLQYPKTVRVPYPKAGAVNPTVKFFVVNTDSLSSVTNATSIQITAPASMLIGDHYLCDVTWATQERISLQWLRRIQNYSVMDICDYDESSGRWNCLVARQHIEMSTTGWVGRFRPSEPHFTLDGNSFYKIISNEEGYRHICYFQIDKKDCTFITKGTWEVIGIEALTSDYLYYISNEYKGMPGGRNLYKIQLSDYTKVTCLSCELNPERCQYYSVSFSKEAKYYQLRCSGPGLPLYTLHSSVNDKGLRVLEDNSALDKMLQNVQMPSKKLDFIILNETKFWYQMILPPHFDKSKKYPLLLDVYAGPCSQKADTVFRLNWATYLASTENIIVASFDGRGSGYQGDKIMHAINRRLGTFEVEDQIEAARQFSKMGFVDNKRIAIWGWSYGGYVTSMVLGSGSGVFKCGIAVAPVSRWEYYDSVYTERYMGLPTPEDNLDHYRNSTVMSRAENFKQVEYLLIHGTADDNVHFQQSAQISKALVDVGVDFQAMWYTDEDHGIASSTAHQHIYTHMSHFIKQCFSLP

| Compound | IC50 |
| --- | --- |
| CC(C)C[C@H](NC(=O)[C@H](CC(=O)O)NC(=O)[C@@H]1CCCN1)C(=O)N[C@H](C(=O)O)C(C)C [PDLV] (H-PDLV-OH) | > 2500 µM |
| CC(C)C[C@H](NC(=O)[C@@H]1CCCN1C(=O)[C@@H](N)CC(=O)O)C(=O)N[C@H](C(=O)O)C(C)C [DPLV] (H-DPLV-OH) | > 2500 µM |
| VAPEEHPT | 2270 µM |
| CSSGGY [CSSGGY] | 2160 µM |
| VDAGAP [VDAGAP] | > 2500 µM |
| CSSGK [CSSGK] | > 2500 µM |
| C[C@@H](O)[C@H](NC(=O)[C@H](Cc1ccc(O)cc1)NC(=O)[C@H](CC(=O)O)NC(=O)[C@@H](N)CCC(=O)O)C(=O)O [EDYT] (H-EDYT-OH; N-terminus and C-terminus assumed) | > 2500 µM |
| C[C@@H](O)[C@H](NC(=O)[C@H](CC(=O)O)NC(=O)[C@@H](N)CCC(=O)O)C(=O)N[C@@H](Cc1ccc(O)cc1)C(=O)O [EDTY] (H-EDTY-OH; N-terminus and C-terminus assumed) | > 2500 µM |

Test system: DPP-IV
Test: In vitro (biochemical) DPP-IV inhibitory activity test
Settings: synthetic peptides identified in basolateral side

| Compound | IC50 |
| --- | --- |
| VADTMEVV | 603 µM |
| C[C@@H](O)[C@H](NC(=O)[C@H](Cc1ccc(O)cc1)NC(=O)[C@H](CC(=O)O)NC(=O)[C@@H](N)CCC(=O)O)C(=O)O [EDYT] (H-EDYT-OH; N-terminus and C-terminus assumed) | > 2500 µM |
| C[C@@H](O)[C@H](NC(=O)[C@H](CC(=O)O)NC(=O)[C@@H](N)CCC(=O)O)C(=O)N[C@@H](Cc1ccc(O)cc1)C(=O)O [EDTY] (H-EDTY-OH; N-terminus and C-terminus assumed) | > 2500 µM |
